Experimental data: patent US20230416228A1 (Forkhead Biotherapeutics, Inc., priority 2020, published 2023)

These molecules were tested against T1, human FOXO1 (constitutively active form Thr24Ala, Ser256Ala, Ser319Ala) (Homo sapiens, UniProt Q12778, S256A/S319A/T24A) (assay: FOXO1 inhibitor activity assay: cell-based transcriptional (luciferase) reporter assay in HEK293 cells). Settings: HEK293 cells transfected with insulin response element firefly luciferase reporter, FOXO1 and Renilla luciferase; 10-point dose response 50 μM to 2.5 nM; 24 hours.
T1 construct: expressed in transfected cells; host or cells: HEK293 cells transfected with pcDNA3.1 plasmid
How it was run: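 IC50 and maximal inhibition were fitted by 4-parameter logistic regression on normalized firefly/Renilla luciferase ratios. The 0% reference used RFP in place of FOXO1, and the 100% reference was DMSO-only with all plasmids.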

T1 sequence (Q12778 whole entry T24A/S256A/S319A): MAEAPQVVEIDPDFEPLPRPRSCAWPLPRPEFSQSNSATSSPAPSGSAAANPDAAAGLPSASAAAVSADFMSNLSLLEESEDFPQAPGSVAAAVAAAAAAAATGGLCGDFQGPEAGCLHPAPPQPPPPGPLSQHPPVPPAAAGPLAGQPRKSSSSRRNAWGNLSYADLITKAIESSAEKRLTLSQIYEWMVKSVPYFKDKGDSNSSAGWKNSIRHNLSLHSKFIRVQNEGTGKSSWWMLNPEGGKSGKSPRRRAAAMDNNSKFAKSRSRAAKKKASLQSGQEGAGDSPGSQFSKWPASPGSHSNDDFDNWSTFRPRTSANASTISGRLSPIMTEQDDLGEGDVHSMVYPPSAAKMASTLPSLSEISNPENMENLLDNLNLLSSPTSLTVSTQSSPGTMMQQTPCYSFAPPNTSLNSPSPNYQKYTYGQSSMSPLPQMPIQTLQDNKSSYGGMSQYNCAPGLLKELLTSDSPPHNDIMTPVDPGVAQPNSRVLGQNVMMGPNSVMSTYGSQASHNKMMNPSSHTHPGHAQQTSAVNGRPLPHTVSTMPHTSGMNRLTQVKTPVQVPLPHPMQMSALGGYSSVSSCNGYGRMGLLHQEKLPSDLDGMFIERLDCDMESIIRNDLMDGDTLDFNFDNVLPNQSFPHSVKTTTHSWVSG

Row | SMILES | IC50 [nM]
1 | COC1CN(c2ccc(C(=O)Nc3cc(-c4nc5cc(F)ccc5[nH]4)n(C)n3)cn2)C1 [Compound A-128, N-[5-(5-fluoro-1H-benzimidazol-2-yl)-1-methyl-pyrazol-3-yl]-6-(3-methoxyazetidin-1-yl)pyridine-3-carboxamide] | 300 to 1000
2 | O=C(Nc1cc(-c2nc3ccccc3[nH]2)[nH]n1)c1ccc(OCCO)c(F)c1 [Compound A-130, N-[5-(1H-benzimidazol-2-yl)-1H-pyrazol-3-yl]-3-fluoro-4-(2-hydroxyethoxy)benzamide] | 300 to 1000
3 | COC1CN(c2ccc(C(=O)Nc3cc(-c4nc5cccc(F)c5[nH]4)n(C)n3)cn2)C1 [Compound A-137, N-[5-(4-fluoro-1H-benzimidazol-2-yl)-1-methyl-pyrazol-3-yl]-6-(3-methoxyazetidin-1-yl)pyridine-3-carboxamide] | 300 to 1000
4 | O=C(NCc1ccccc1)Nc1cc(-c2nc3ccccc3[nH]2)[nH]n1 [Compound A-138, 1-[5-(1H-benzimidazol-2-yl)-1H-pyrazol-3-yl]-3-benzyl-urea] | > 1000
5 | O=C(Nc1ccccc1)Nc1cc(-c2nc3ccccc3[nH]2)[nH]n1 [Compound A-140, 1-[5-(1H-benzimidazol-2-yl)-1H-pyrazol-3-yl]-3-phenyl-urea] | > 1000
6 | O=C(Nc1cc(-c2nc3ccccc3[nH]2)[nH]n1)c1ccc(N2CCN(CCO)CC2)nc1 [Compound A-143, N-[5-(1H-benzimidazol-2-yl)-1H-pyrazol-3-yl]-6-[4-(2-hydroxyethyl)-piperazin-1-yl]pyridine-3-carboxamide] | 100 to 300
7 | N#Cc1cc(C(=O)Nc2cc(-c3nc4ccccc4[nH]3)[nH]n2)ccc1OCCO [Compound A-144, N-[5-(1H-benzimidazol-2-yl)-1H-pyrazol-3-yl]-3-cyano-4-(2-hydroxy-ethoxy)benzamide] | > 1000
8 | CCOC(=O)[C@@H]1CCCN1c1ccc(C(=O)Nc2cc(-c3nc4cc(F)ccc4[nH]3)n(C)n2)cn1 [Compound A-145, ethyl (25)-1-[5-[[5-(5-fluoro-1H-benzimidazol-2-yl)-1-methyl-pyrazol-3-yl]carbamoyl]-2-pyridyl]pyrrolidine-2-carboxylate] | > 1000
9 | CCOC(=O)[C@H]1CCCN1c1ccc(C(=O)Nc2cc(-c3nc4cc(F)ccc4[nH]3)n(C)n2)cn1 [Compound A-146, ethyl (2R)-1-[5-[[5-(5-fluoro-1H-benzimidazol-2-yl)-1-methyl-pyrazol-3-yl]carbamoyl]-2-pyridyl]pyrrolidine-2-carboxylate] | > 1000
10 | CCOC(=O)[C@@H]1CCCN1c1ccc(C(=O)Nc2cc(-c3nc4cccc(F)c4[nH]3)n(C)n2)cn1 [Compound A-147, ethyl (2S)-1-[5-[[5-(4-fluoro-1H-benzimidazol-2-yl)-1-methyl-pyrazol-3-yl]carbamoyl]-2-pyridyl]pyrrolidine-2-carboxylate] | > 1000
11 | Cn1nc(NC(=O)c2ccc(N3CCOCC3)nc2)cc1-c1nc2cc(F)ccc2[nH]1 [Compound A-148, N-[5-(5-fluoro-1H-benzimidazol-2-yl)-1-methyl-pyrazol-3-yl]-6-morpholino-pyridine-3-carboxamide] | 100 to 300
12 | COCCN1CCN(c2ccc(C(=O)Nc3cc(-c4nc5cc(F)ccc5[nH]4)n(C)n3)cn2)CC1 [Compound A-149] | 100 to 300
13 | Cn1nc(NC(=O)c2ccc(N3CCN(CCO)CC3)nc2)cc1-c1nc2cc(F)ccc2[nH]1 [Compound A-150] | 100 to 300
14 | Cn1nc(NC(=O)c2ccc(N3CCC[C@H]3C(=O)O)nc2)cc1-c1nc2cc(F)ccc2[nH]1 [Compound A-151, (2S)-1-[5-[[5-(5-fluoro-1H-benzimidazol-2-yl)-1-methyl-pyrazol-3-yl]carbamoyl]-2-pyridyl]pyrrolidine-2-carboxylic acid] | > 1000

Other lines, results leading:

Row | IC50 [nM] | SMILES
15 | < 100 | COc1ccc(C(=O)Nc2cc(-c3nc4cc(F)ccc4[nH]3)n(C)n2)cc1Cl [Compound A-126, 3-chloro-N-[5-(5-fluoro-1H-benzimidazol-2-yl)-1-methyl-pyrazol-3-yl]-4-methoxy-benzamide]
16 | < 100 | COc1cc(F)c2[nH]c(-c3cc(NC(=O)c4ccc(OC)c(Cl)c4)n[nH]3)nc2c1 [Compound A-127, 3-chloro-N-[5-(7-fluoro-5-methoxy-1H-benzimidazol-2-yl)-1H-pyrazol-3-yl]-4-methoxy-benzamide]
17 | 100 to 300 | COCCOc1ccc(C(=O)Nc2cc(-c3nc4ccccc4[nH]3)[nH]n2)cc1C#N [Compound A-129, N-[5-(1H-benzimidazol-2-yl)-1H-pyrazol-3-yl]-3-cyano-4-(2-methoxyethoxy)benzamide]
18 | 100 to 300 | COC1CN(c2ccc(C(=O)Nc3cc(-c4nc5cccc(F)c5[nH]4)[nH]n3)cn2)C1 [Compound A-131, N-[5-(7-fluoro-1H-benzimidazol-2-yl)-1H-pyrazol-3-yl]-6-(3-methoxy-azetidin-1-yl)pyridine-3-carboxamide]
19 | < 100 | COC1CN(c2ccc(C(=O)Nc3cc(-c4nc5cc(F)ccc5[nH]4)[nH]n3)cn2)C1 [Compound A-132, N-[5-(5-fluoro-1H-benzimidazol-2-yl)-1H-pyrazol-3-yl]-6-(3-methoxy-azetidin-1-yl)pyridine-3-carboxamide]
20 | 100 to 300 | CN(C)C1CCN(c2ccc(C(=O)Nc3cc(-c4nc5cc(F)ccc5[nH]4)n(C)n3)cn2)CC1 [Compound A-133, 6-[4-(dimethylamino)-1-piperidyl]-N-[5-(5-fluoro-1H-benzimidazol-2-yl)-1-methyl-pyrazol-3-yl]pyridine-3-carboxamide]
21 | 100 to 300 | Cn1nc(NC(=O)c2ccc(N3CCC(O)CC3)nc2)cc1-c1nc2cccc(F)c2[nH]1 [Compound A-134]
22 | 100 to 300 | Cn1nc(NC(=O)c2ccc(N3CCOCC3)nc2)cc1-c1nc2cccc(F)c2[nH]1 [Compound A-135, N-[5-(4-fluoro-1H-benzimidazol-2-yl)-1-methyl-pyrazol-3-yl]-6-morpholino-pyridine-3-carboxamide]
23 | 100 to 300 | Cn1nc(NC(=O)c2ccc(N3CCC(CO)CC3)nc2)cc1-c1nc2cccc(F)c2[nH]1 [Compound A-136, N-[5-(4-fluoro-1H-benzimidazol-2-yl)-1-methyl-pyrazol-3-yl]-6-[4-(hydroxymethyl)-1-piperidyl]pyridine-3-carboxamide]
24 | 100 to 300 | CN(C)C1CCN(c2ccc(C(=O)Nc3cc(-c4nc5cccc(F)c5[nH]4)n(C)n3)cn2)CC1 [Compound A-139, 6-[4-(dimethylamino)-1-piperidyl]-N-[5-(4-fluoro-1H-benzimidazol-2-yl)-1-methyl-pyrazol-3-yl]pyridine-3-carboxamide]
25 | 100 to 300 | O=C(Nc1cc(-c2nc3cc(F)ccc3[nH]2)[nH]n1)c1ccc(OCCO)c(Cl)c1 [Compound A-141, 3-chloro-N-[5-(5-fluoro-1H-benzimidazol-2-yl)-1H-pyrazol-3-yl]-4-(2-hydroxyethoxy)benzamide]
26 | < 100 | COCCN1CCN(c2ccc(C(=O)Nc3cc(-c4nc5ccccc5[nH]4)[nH]n3)cn2)CC1 [Compound A-142, N-[5-(1H-benzimidazol-2-yl)-1H-pyrazol-3-yl]-6-[4-(2-methoxyethyl)-piperazin-1-yl]pyridine-3-carboxamide]
27 | < 100 | O=C(Nc1cc(-c2nc3ccccc3[nH]2)[nH]n1)c1ccc(OCCO)c(C(F)(F)F)c1 [Compound A-152, N-[5-(1H-benzimidazol-2-yl)-1H-pyrazol-3-yl]-4-(2-hydroxyethoxy)-3-(trifluoromethyl)benzamide]
